From patent publication US20250003877A1, “Silyl Bridged Dyes” (priority 2021, published 2025) come the findings set out here.

Read-outs that look alike come from different tables or passages of the source.

For the data set the following is noted: for brighter than dimethylsilyl counterpart: vs 001 (for 002, 009) or vs 016 (for 017).

For the compound `CC[Si]1(CC)C2=CC(=[N+](C)C)C=CC2=C(c2ccccc2C)c2ccc(N(C)C)cc21` [Compound 002, N-(7-(Dimethylamino)-5,5-diethyl-10-(o-tolyl)dibenzo[b,e]silin-3(5H)-ylidene)-N-methylmethanaminium], where the note is “PBS”, the “Brightness (ϕ × ε)” value is on record as 58,540, the “Em (nm)” value amounted to 664 nm, the “Ex (nm)” value is recorded as 648 nm and the “ε (M^−1 cm^−1)” value was 164,900 M^−1 cm^−1. Besides, the “brighter than dimethylsilyl counterpart” value (PBS) was 30%. For the same compound, the “ϕ (quantum yield)” value (PBS, pH 7.4) is reported as 0.36.
Regarding `C=C[Si]1(C)C2=CC(=[N+](C)C)C=CC2=C(c2ccccc2C)c2ccc(N(C)C)cc21` (stereo not drawn) [Compound 003, N-(7-(Dimethylamino)-5-methyl-10-(o-tolyl)-5-vinyldibenzo[b,e]silin-3(5H)-ylidene)-N-methylmethanaminium], where the note is “PBS”, the “Brightness (ϕ × ε)” value is recorded as 48,924, the “Em (nm)” value was 668 nm, the “Ex (nm)” value stood at 651 nm and the “ε (M^−1 cm^−1)” value is 141,400 M^−1 cm^−1. For the setting “PBS, pH 7.4”, the “ϕ (quantum yield)” value was 0.35.
On to `Cc1ccccc1C1=C2C=CC(=[N+](C)C)C=C2[Si](C)(c2ccccc2)c2cc(N(C)C)ccc21` (stereo not drawn) [Compound 004, N-(7-(Dimethylamino)-5-methyl-5-phenyl-10-(o-tolyl)dibenzo[b,e]silin-3(5H)-ylidene)-N-methylmethanaminium], for which, for the setting “PBS”, the “Brightness (ϕ × ε)” value is reported as 34,203, the “Em (nm)” value was 670 nm, the “Ex (nm)” value is listed as 657 nm and the “ε (M^−1 cm^−1)” value was 99,140 M^−1 cm^−1. Besides, the “ϕ (quantum yield)” value (PBS, pH 7.4) came out at 0.35.
In the case of `C=C[Si]1(c2ccccc2)C2=CC(=[N+](C)C)C=CC2=C(c2ccccc2C)c2ccc(N(C)C)cc21` (stereo not drawn) [Compound 005, N-(7-(Dimethylamino)-5-phenyl-10-(o-tolyl)-5-vinyldibenzo[b,e]silin-3(5H)-ylidene)-N-methylmethanaminium], for the setting “PBS”, the “Brightness (ϕ × ε)” value is reported as 53,499, the “Em (nm)” value turned out to be 676 nm, the “Ex (nm)” value was determined as 658 nm and the “ε (M^−1 cm^−1)” value was 150,700 M^−1 cm^−1. Also, the “ϕ (quantum yield)” value (PBS, pH 7.4) came out at 0.36.
As for `C=C[Si]1(C=C)C2=CC(=[N+](C)C)C=CC2=C(c2ccccc2C)c2ccc(N(C)C)cc21` [Compound 006, N-(7-(Dimethylamino)-10-(o-tolyl)-5,5-divinyldibenzo[b,e]silin-3(5H)-ylidene)-N-methylmethanaminium], for the setting “PBS”, the “Brightness (ϕ × ε)” value was 56,671, the “Em (nm)” value was 672 nm, the “Ex (nm)” value came out at 657 nm and the “ε (M^−1 cm^−1)” value is recorded as 158,300 M^−1 cm^−1. Also, the “ϕ (quantum yield)” value (PBS, pH 7.4) is listed as 0.36.
Take `Cc1ccccc1C1=C2C=CC(=[N+](C)C)C=C2[Si](c2ccccc2)(c2ccccc2)c2cc(N(C)C)ccc21` [Compound 007, N-(7-(Dimethylamino)-5,5-diphenyl-10-(o-tolyl)dibenzo[b,e]silin-3(5H)-ylidene)-N-methylmethanaminium]: where the note is “PBS”, the “Brightness (ϕ × ε)” value is 41,952, the “Em (nm)” value came out at 677 nm, the “Ex (nm)” value turned out to be 663 nm and the “ε (M^−1 cm^−1)” value is listed as 120,900 M^−1 cm^−1. In addition, the “ϕ (quantum yield)” value (PBS, pH 7.4) is given as 0.35. Moreover, under “vs 001 (for 007) or vs 020 (for 021, 022), excitation and emission”, the “red-shift compared to dimethylsilyl counterpart” value was “approximately 15 nm”.
Regarding `Cc1ccccc1C1=C2C=CC(=[N+](C)C)C=C2[Si](C)(c2cccc(N(C)C)c2)c2cc(N(C)C)ccc21` (stereo not drawn) [Compound 008, N-(7-(Dimethylamino)-5-(3-(dimethylamino)phenyl)-5-methyl-10-(o-tolyl)dibenzo[b,e]silin-3(5H)-ylidene)-N-methylmethanaminium], for the setting “PBS”, the “Brightness (ϕ × ε)” value amounted to 3700, the “Em (nm)” value is 668 nm, the “Ex (nm)” value stood at 651 nm and the “ε (M^−1 cm^−1)” value is on record as 154,200 M^−1 cm^−1. The “ϕ (quantum yield)” value (PBS, pH 7.4) worked out at 0.02. In addition, where the note is “pH 3 acetate buffer”, the quantum yield is given as 0.31.
Regarding `Cc1ccccc1C1=C2C=CC(=[N+](C)C)C=C2[Si](C)(CCCCl)c2cc(N(C)C)ccc21` (stereo not drawn) [Compound 009, N-(5-(3-Chloropropyl)-7-(dimethylamino)-5-methyl-10-(o-tolyl)dibenzo[b,e]silin-3(5H)-ylidene)-N-methylmethanaminium], under “PBS”, the “Brightness (ϕ × ε)” value is given as 64,113, the “Em (nm)” value was 665 nm, the “Ex (nm)” value is 650 nm and the “ε (M^−1 cm^−1)” value was 180,600 M^−1 cm^−1. The “brighter than dimethylsilyl counterpart” value (PBS) was 50%. The “ϕ (quantum yield)” value (PBS, pH 7.4) is on record as 0.36.
As for `Cc1ccccc1C1=C2C=CC(=[N+](C)C)C=C2[Si](C)(CCC(F)(F)F)c2cc(N(C)C)ccc21` (stereo not drawn) [Compound 010, N-(7-(Dimethylamino)-5-methyl-10-(o-tolyl)-5-(3,3,3-trifluoropropyl)dibenzo[b,e]silin-3(5H)-ylidene)-N-methylmethanaminium], where the note is “PBS”, the “Brightness (ϕ × ε)” value is 39,854, the “Em (nm)” value came to 666 nm, the “Ex (nm)” value is reported as 650 nm and the “ε (M^−1 cm^−1)” value is given as 112,900 M^−1 cm^−1. For the same compound, the “ϕ (quantum yield)” value (PBS, pH 7.4) is 0.35.
As for `CCCCCCCC[Si]1(CCCCCCCC)C2=CC(=[N+](C)C)C=CC2=C(c2ccccc2C)c2ccc(N(C)C)cc21` [Compound 011, N-(7-(Dimethylamino)-5,5-dioctyl-10-(o-tolyl)dibenzo[b,e]silin-3(5H)-ylidene)-N-methylmethanaminium], for the setting “EtOH”, the “Brightness (ϕ × ε)” value is 89,091; the fluorescence and scatter result was “bright fluorescence and no scatter peak”; the “ε (M^−1 cm^−1)” value is listed as 156,300 M^−1 cm^−1; the “ϕ (quantum yield)” value is 0.57. Also, for the setting “PBS”, the “Em (nm)” value is 666 nm, the “Ex (nm)” value turned out to be 651 nm and the “ε (M^−1 cm^−1)” value is recorded as “low extinction coefficient”. Also, the Rayleigh scatter entry (PBS, 1 μM concentration) is listed as “pronounced Rayleigh scatter peak”. The “ϕ (quantum yield)” value (PBS, pH 7.4) is 0.18.
In the case of `Cc1ccccc1C1=C2C=CC(=[N+](C)C)C=C2[Si](C)([C@H]2CC3C=CC2C3)c2cc(N(C)C)ccc21` (stereo partly drawn) [Compound 013, N-(5-((2S)-Bicyclo[2.2.1]hept-5-en-2-yl)-7-(dimethylamino)-5-methyl-10-(o-tolyl)dibenzo[b,e]silin-3(5H)-ylidene)-N-methylmethanaminium], where the note is “PBS”, the “Brightness (ϕ × ε)” value is 60,800, the “Em (nm)” value is listed as 666 nm, the “Ex (nm)” value came to 649 nm and the “ε (M^−1 cm^−1)” value is recorded as 160,000 M^−1 cm^−1. Where the note is “PBS, pH 7.4”, the “ϕ (quantum yield)” value came to 0.38.
On the same counts, the results for `Cc1ccccc1C1=C2C=CC(=[N+](C)C)C=C2[Si]2(CCCCC2)c2cc(N(C)C)ccc21` [Compound 014, N-(7-(Dimethylamino)-10-(o-tolyl)-3H-spiro[dibenzo[b,e]siline-5,1′-silinan]-3-ylidene)-N-methylmethanaminium] are 56,610, 666 nm, 650 nm, 170,000 M^−1 cm^−1 and 0.33.
`C=C[Si]1(C=C)c2cc3c(cc2C(c2ccccc2C)=c2cc4c(cc21)=[N+](C)CCC4)CCCN3C` [Compound 017, 1,11-Dimethyl-6-(o-tolyl)-13,13-divinyl-2,3,4,8,9,10,11,13-octahydrosilino[3,2-g:5,6-g′]diquinolin-1-ium]: where the note is “PBS”, the “Brightness (ϕ × ε)” value is on record as 75,104, the “Em (nm)” value was determined as 702 nm, the “Ex (nm)” value is listed as 683 nm and the “ε (M^−1 cm^−1)” value was 234,700 M^−1 cm^−1. For the same compound, the “brighter than dimethylsilyl counterpart” value (PBS) turned out to be 60%. Further, under “PBS, pH 7.4”, the “ϕ (quantum yield)” value was 0.32.
Regarding `Cc1ccccc1C1=c2cc3c(cc2[Si](c2ccccc2)(c2ccccc2)c2cc4c(cc21)CCCN4C)=[N+](C)CCC3` [Compound 018, 1,11-Dimethyl-13,13-diphenyl-6-(o-tolyl)-2,3,4,8,9,10,11,13-octahydrosilino[3,2-g:5,6-g′]diquinolin-1-ium], for the setting “PBS”, the “Brightness (ϕ × ε)” value was 41,524, the “Em (nm)” value was determined as 710 nm, the “Ex (nm)” value is reported as 690 nm and the “ε (M^−1 cm^−1)” value is recorded as 148,300 M^−1 cm^−1. For the same compound, the “ϕ (quantum yield)” value (PBS, pH 7.4) came out at 0.28.
In the case of `Cc1ccccc1C1=c2cc3c(cc2[Si](C)(CCCCl)c2cc4c(cc21)CCCN4C)=[N+](C)CCC3` (stereo not drawn) [Compound 019, 13-(3-Chloropropyl)-1,11,13-trimethyl-6-(o-tolyl)-2,3,4,8,9,10,11,13-octahydrosilino[3,2-g:5,6-g′]diquinolin-1-ium], where the note is “PBS”, the “Brightness (ϕ × ε)” value is recorded as 41,250, the “Em (nm)” value was determined as 694 nm, the “Ex (nm)” value was 677 nm and the “ε (M^−1 cm^−1)” value was 125,000 M^−1 cm^−1. In addition, the “ϕ (quantum yield)” value (PBS, pH 7.4) was found to be 0.33.
As to `C=C[Si]1(C=C)c2cc3c(cc2C(c2ccccc2C)=c2cc4c(cc21)=[N+](C)CC4)CCN3C` [Compound 021, 1,9-Dimethyl-5-(o-tolyl)-11,11-divinyl-2,3,7,8,9,11-hexahydrosilino[3,2-f:5,6-f]diindol-1-ium], under “PBS”, the “Brightness (ϕ × ε)” value was 17,693, the “Em (nm)” value was found to be 728 nm, the “Ex (nm)” value was determined as 702 nm and the “ε (M^−1 cm^−1)” value is 136,100 M^−1 cm^−1. The “ϕ (quantum yield)” value (PBS, pH 7.4) was 0.13.
For `Cc1ccccc1C1=c2cc3c(cc2[Si](c2ccccc2)(c2ccccc2)c2cc4c(cc21)CCN4C)=[N+](C)CC3` [Compound 022, 1,9-Dimethyl-11,11-diphenyl-5-(o-tolyl)-2,3,7,8,9,11-hexahydrosilino[3,2-f:5,6-f′]diindol-1-ium], under “PBS”, the “Brightness (ϕ × ε)” value is listed as 12,870, the “Em (nm)” value stood at 737 nm, the “Ex (nm)” value amounted to 710 nm and the “ε (M^−1 cm^−1)” value was 117,000 M^−1 cm^−1. For the same compound, the “ϕ (quantum yield)” value (PBS, pH 7.4) came to 0.11.
For `Cc1ccccc1C1=c2cc3c(cc2[Si](C)(CCCCl)c2cc4c(cc21)CCN4C)=[N+](C)CC3` (stereo not drawn) [Compound 023, 11-(3-Chloropropyl)-1,9,11-trimethyl-5-(o-tolyl)-2,3,7,8,9,11-hexahydrosilino[3,2-f:5,6-f]diindol-1-ium] the same measures were 21,947, 717 nm, 693 nm, 129,100 M^−1 cm^−1 and 0.17.
